Here are results for 35 substances from US12240890B2, “Compositions and methods for treating and/or preventing pathogenic fungal infection and for maintenance of microbiome commensalism” (priority 2017, dated 2025).

The subject of assay [1] is C. albicans strain SC5314. Description: crystal violet based biofilm assay (24 hours, OD600). Format: cell-based, Candida albicans. The conditions noted are these: for Mean Normalized to vehicle control: biofilm OD600 values normalized to vehicle control, 24 hours; for efficacy in inhibiting formation of biofilm relative to PYY13-36: in vitro, Candida albicans; for inhibition of biofilm formation: crystal violet staining, 10-20 uM of respective peptides. The method, then: FIG. 13. […] Biofilm formation was measured in an assay that quantitates biofilms by staining with a crystal violet dye. The amount of dye absorbed by the biofilm positively correlates with amount of biofilm present. Amount of dye is measured via an optical density reading at a wavelength of 600 nm (OD600). Biofilm formation is measured over 24 hours in the presence or absence of peptides at 10, 30, or 40 uM concentrations.
Candida albicans (sc3514 cited in: Romanowski et al. PLOS One 7: e30119, 2012.: incorporated by reference in its entirety) and Candida tropicalis (ATCC #13803) were maintained in frozen glycerol stocks at −80° C. and streaked out on yeast-peptone-dextrose (YPD) agar plates for 48 hours at 30° C. prior to use. Single colonies were selected and cultured in YPD media at 30° C. Biofilm assays were performed using crystal violet straining (Taff et al. Med Mycol 50:214-218, 2012.: incorporated by reference in its entirety) in the presence of 10-20 uM of respective peptides. To induce hyphal growth, strains were placed in YPD+5% FBS or RPMI media at 37° C. for 4 hours. To image hyphal membrane disruption, the DNA binding fluorescent dye, propidium iodide (PI), was added to wells strains in the presence of peptides and imaged under bright field and far red fluorescent conditions. […] To investigate Candida albican virulence gene expression, 10 μL of a 1.0 OD600 culture were placed in 1 mL RPMI at 37° C. with shaking for 8 hours. Cultures were centrifuged at 3000×g for 5 minutes and RNA isolation was performed as described below.
Antifungal activity of peptides described in this application was tested by performing a crystal violet based biofilm assay. In this assay, Candida albicans is induced to form a biofilm in a 96-well plate for 24 hours in the presence or absence of peptide. Biofilm formation is quantitated through crystal violet staining and solubilization followed by optical density reading. […] Data are OD600 values normalized to appropriate within experiment vehicle control. Statistical analysis was performed via 2-Way ANOVA with multiple comparisons post-test. Significance is denoted by: *=p<0.05; **=p<0.01; ***-p<0.001; ****=p<0.0001. ns=not significant.

The subject of the next assay is Candida albicans. Description: Candida albicans culture growth. Format: cell-based. The conditions noted are these: hyphal inducing conditions (broth culture containing serum).

“And” between values parts separate entries of the source, which are not always exact repeats. Equal values may be shown once. No end group written: not given here.

For “ASPEELNRYYASLRHYLNLVTRQRY [AVpeptide 18, (12-36)]”, the results for the “Mean Normalized to vehicle control” value in assay [1] (10 μM peptide), in assay [1] (30 μM peptide) and in assay [1] (40 μM peptide) were 1.11, 0.16 and 0.05, respectively.

As for “LPDELNRYYASLRKYLNLVTRQRY [AVpeptide 25, (S13L, E15D, H26K)]”, in assay [1], the “inhibition of biofilm formation at concentrations lower than PYY13-36” value is on record as “greatly inhibited biofilm formation by C. albicans at concentrations lower than PYY13-36” and the “efficacy in inhibiting formation of biofilm relative to PYY13-36” value is “increased inhibition of biofilm formation”. For the same substance, in assay [1] (30 μM peptide), the “Mean Normalized to vehicle control” value was 0.01 and 0.02.

For “LPEELNRYYASLRHYLNLVTRQLY [AVpeptide 11, (S13L; R35L)]”, the “Mean Normalized to vehicle control” value in assay [1] (40 μM peptide) worked out at 0.99.

On to “LPEELNRYYASLRHYLNLVTRQRY [AVpeptide 10, (S13L)]”, for which, in assay [1] (40 μM peptide), the “Mean Normalized to vehicle control” value worked out at 0.17.

For the substance “LPEELNRYYASLRHYLRLVTRQLY [AVpeptide 23, (S13L, N29R, R35L)]”, in assay [1], the “inhibition of biofilm formation at concentrations lower than PYY13-36” value is given as “greatly inhibited biofilm formation by C. albicans at concentrations lower than PYY13-36” and the “efficacy in inhibiting formation of biofilm relative to PYY13-36” value is listed as “increased inhibition of biofilm formation”. Further, the “Mean Normalized to vehicle control” value in assay [1] (10 μM peptide) is given as 0.03.

“PEELNRYYASLRHYLNAVTRQLA [AVpeptide 4, (14-36, L30A; R35L; Y36A)]”: the “Mean Normalized to vehicle control” value in assay [1] (10 μM peptide) was 1.04 and 0.98; in assay [1] (30 μM peptide) it was 0.89 and 0.94; in assay [1] (40 μM peptide) it was 0.88.

For the substance “PEELNRYYASLRHYLNAVTRQRY [AVpeptide 2, (14-36, L30A)]”, the “Mean Normalized to vehicle control” value is 1.05 and 1.02 in assay [1] (10 μM peptide); 0.91 and 1.08 in assay [1] (30 μM peptide); 1.01 in assay [1] (40 μM peptide).

“PEELNRYYASLRHYLNLVTRQLY [AVpeptide 1, (14-36; R35L)]”: the “Mean Normalized to vehicle control” value was 0.96 and 0.95 in assay [1] (10 μM peptide); 0.74 and 0.40 in assay [1] (30 μM peptide); 0.14 in assay [1] (40 μM peptide).

In the case of “PEELNRYYASLRHYLNLVTRQRA [AVpeptide 3, (14-36, Y36A)]”, the “Mean Normalized to vehicle control” value in assay [1] (10 μM peptide) was 1.00 and 0.94; in assay [1] (30 μM peptide), 0.90 and 0.93; in assay [1] (40 μM peptide), 0.91.

Turning to “PYY1-12: N-terminal PYY fragment used as inactive comparison peptide (YPIKPEAPREDA; Peptide YY; UniProt P10082 29-40, looked up, fragment) [reference compound]”, the “inhibition of biofilm formation” value in assay [1] is “not a scrambled peptide control or PYY1-12, were capable of blocking biofilm formation”.

“PYY1-13: PYY peptide composed of amino acids 1-13 (YPIKPEAPGEDAS)”: the “C. albicans culture growth” value in the assay with Candida albicans was “displayed no antifungal properties”.

“PYY14-36 Modified: PYY14-36 with Arginine replaced by Alanine (PEELNAYYASLAHYLNLVTAQAY; ends and bridges not checked) [reference compound]”: the “inhibition of biofilm formation” value in assay [1] was “reduced the inhibitory effect”.

For “PYY 1-36 Modified: PYY with charge modified by replacing Arginine with Alanine (YPIKPEAPGEDASPEELNAYYASLAHYLNLVTAQAY; ends and bridges not checked) [reference compound]”, in assay [1], the “inhibition of biofilm formation” value was “reduced the inhibitory effect”.

Regarding “SPDELNRYYASLRKYLNLVTRQRY [AVpeptide 14, (E15D, H26K)]”, the “Mean Normalized to vehicle control” value in assay [1] (10 μM peptide) is reported as 0.82; in assay [1] (30 μM peptide), 0.07; in assay [1] (40 μM peptide) it was 0.07.

In the case of “SPEELNKYYASLRHYLNLVTRQRY [AVpeptide 27, (R19K)]”, the “Mean Normalized to vehicle control” value is recorded as 0.66 in assay [1] (10 μM peptide) and 0.08 in assay [1] (30 μM peptide).

In the case of “SPEELNRLLASLRHLLNLVTRQRY [AVpeptide 32, (Y20L, Y21L, Y27L)]”, the “efficacy in inhibiting formation of biofilm relative to PYY13-36” value in assay [1] was “increased inhibition of biofilm formation”.

Regarding “SPEELNRYLASLRHYLNLVTRQRY [AVpeptide 28, (Y21L)]”, the “Mean Normalized to vehicle control” value in assay [1] (30 μM peptide) is 0.09 and 0.17.

Take “SPEELNRYYASLRHYINLVTRQRY [AVpeptide 29, (L28I)]”: the entries for the “Mean Normalized to vehicle control” value in assay [1] (10 μM peptide) and in assay [1] (30 μM peptide) were 0.58 and 0.04, respectively.

With “SPEELNRYYASLRHYLNLVTRQ [AVpeptide 15, (13-34)]”, the figures for the “Mean Normalized to vehicle control” value in assay [1] (10 μM peptide), in assay [1] (30 μM peptide) and in assay [1] (40 μM peptide) were 0.96, 0.78 and 0.69, respectively.

Turning to SPEELNRYYASLRHYLNLVTRQLR [AVpeptide 6], the “Mean Normalized to vehicle control” value is recorded as 0.97 in assay [1] (10 μM peptide), 0.52 in assay [1] (30 μM peptide) and 0.28 in assay [1] (40 μM peptide). Moreover, in assay [1], the “efficacy in inhibiting formation of biofilm relative to PYY13-36” value is “reduced efficacy”.

Take “SPEELNRYYASLRHYLNLVTRQLY [AVpeptide 21, (R35L)]”: the “Mean Normalized to vehicle control” value in assay [1] (10 μM peptide) came out at 0.92; in assay [1] (30 μM peptide), 0.02.

Consider “SPEELNRYYASLRHYLNLVTRQR [AVpeptide 24, (PYY13-35)]”, for which the “Mean Normalized to vehicle control” value is reported as 0.83 in assay [1] (10 μM peptide) and 0.71 in assay [1] (30 μM peptide). Also, the “efficacy in inhibiting formation of biofilm relative to PYY13-36” value in assay [1] was “reduced efficacy”.

In the case of “SPEELNRYYASLRHYLNLVTRQRR [AVpeptide 5, (Y36R)]”, the “Mean Normalized to vehicle control” value in assay [1] (10 μM peptide) is 0.64 and 0.76; in assay [1] (30 μM peptide) it was 0.28 and 0.53.

Take “SPEELNRYYASLRHYLNLVTRQVY [AVpeptide 8, (R35V)]”: the figures for the “Mean Normalized to vehicle control” value in assay [1] (10 μM peptide), in assay [1] (30 μM peptide) and in assay [1] (40 μM peptide) were 0.97, 0.71 and 0.31, respectively. Further, the “efficacy in inhibiting formation of biofilm relative to PYY13-36” value in assay [1] was “reduced efficacy”.

As for “SPEELNRYYASLRHYLNLVTRQYY [AVpeptide 7, (R35Y)]”, the “Mean Normalized to vehicle control” value in assay [1] (10 μM peptide) turned out to be 0.97; in assay [1] (30 μM peptide) it was 0.08; in assay [1] (40 μM peptide), 0.33.

As to “SPEELNRYYASLRHYLRLVTRQLY [AVpeptide 9, (N29R; R35L)]”, the “Mean Normalized to vehicle control” value in assay [1] (40 μM peptide) was determined as 0.05.

In the case of “SPEELNRYYASLRHYLRLVTRQRY [AVpeptide 22, (N29R)]”, the figures for the “Mean Normalized to vehicle control” value in assay [1] (10 μM peptide) and in assay [1] (30 μM peptide) were 0.84 and 0.37, respectively.

In the case of “SPEELNRYYASLRHYYNLVTRQRY [AVpeptide 12, (L28Y)]”, the “Mean Normalized to vehicle control” value was 1.01 in assay [1] (10 μM peptide), 0.46 in assay [1] (30 μM peptide) and 0.15 in assay [1] (40 μM peptide).

Consider “SPEELNRYYASSRHYLNLVTRQRY [AVpeptide 19, (L24S)]”, for which the “Mean Normalized to vehicle control” value in assay [1] (10 μM peptide) is reported as 1.06; in assay [1] (30 μM peptide), 1.01; in assay [1] (40 μM peptide) it was 0.97. Besides, the “efficacy in inhibiting formation of biofilm relative to PYY13-36” value in assay [1] is listed as “reduced efficacy”.

With “SPEELNRYYLALRHYLNLVTRQRY [AVpeptide 31, (A22L, S23A)]”, the “Mean Normalized to vehicle control” value in assay [1] (10 μM peptide) turned out to be 0.05; in assay [1] (30 μM peptide), 1.00.

As for “SPEELNRYYLSLRHYLNLVTRQRY [AVpeptide 20, (A22L)]”, the “Mean Normalized to vehicle control” value in assay [1] (10 μM peptide) is 0.47 and 0.52 and 0.62; in assay [1] (30 μM peptide) it was 1.07 and 1.25 and 1.03; in assay [1] (40 μM peptide) it was 1.04. In addition, the “efficacy in inhibiting formation of biofilm relative to PYY13-36” value in assay [1] was “increased inhibition of biofilm formation”.

Regarding “SPEELNRYYTALRHYLNLVTRQRY [AVpeptide 30, (A22T, S23A)]”, the “Mean Normalized to vehicle control” value in assay [1] (10 μM peptide) was 0.16 and 0.10; in assay [1] (30 μM peptide), 0.02.

Take “SPEQLNRYYASLRHYLNLVTRERY [AVpeptide 13, (E16Q, Q34A)]”: the “Mean Normalized to vehicle control” value in assay [1] (10 μM peptide) is recorded as 0.95; in assay [1] (30 μM peptide), 0.14; in assay [1] (40 μM peptide), 0.07.

“YPEEYNRYYASYRHYLNHVTRQRY [AVpeptide 16, (S13Y L17Y L24Y L30H)]”: the “Mean Normalized to vehicle control” value worked out at 1.06 in assay [1] (10 μM peptide), 1.02 in assay [1] (30 μM peptide) and 0.95 in assay [1] (40 μM peptide).

As to “YPEEYNRYYASYRHYLNLVTRQRY [AVpeptide 17, (S13Y L17Y L24Y)]”, the “Mean Normalized to vehicle control” value in assay [1] (10 μM peptide) stood at 0.91; in assay [1] (30 μM peptide), 0.94.
